Data: patent US8394848B2, “Compounds that modulate intracellular calcium” (Calcimedica, Inc., priority 2008, dated 2013)

test system: JR251 or RBL cells; test: Store-operated calcium entry, either JR251 or RBL cells, or both; assay type: cell-based
Outline: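 FLIPR calcium-entry readout in fluo-4-loaded cells held in Ca2+-free HBSS before calcium add-back. For RBL-2H3, store depletion used thapsigargin for 25 min after a 5 min compound pre-incubation, and IC50 was based on the 7 s Upslope. For Orai1/STIM1 stable cells, compound was pre-incubated 30 min and IC50 was based on Peak-Basal.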

Compound | IC50 [µM]
O=C(CCc1ccc(F)cc1F)Nc1scc(-c2ccc(Br)cc2)c1C(=O)O [4-(4-bromophenyl)-2-(3-(2,4-difluorophenyl)propanamido)thiophene-3-carboxylic acid] | < 10
O=C(O)c1c(-c2ccc(Br)cc2)csc1NC(=O)C(F)Cc1c(Cl)cccc1Cl (centres unmarked) [4-(4-bromophenyl)-2-(3-(2,6-dichlorophenyl)-2-fluoropropanamido)thiophene-3-carboxylic acid] | < 10
O=C(CCc1c(Cl)cccc1Cl)Nc1scc(-c2ccc(Br)cc2)c1C(=O)O [4-(4-bromophenyl)-2-(3-(2,6-dichlorophenyl)propanamido)thiophene-3-carboxylic acid] | < 10
Cc1cccc(C)c1CCC(=O)Nc1scc(-c2ccc(Br)cc2)c1C(=O)O [4-(4-bromophenyl)-2-(3-(2,6-dimethylphenyl)propanamido)thiophene-3-carboxylic acid] | < 10
O=C(O)c1c(-c2ccc(Br)cc2)csc1NC(=O)C(F)Cc1cc(F)ccc1Cl (centres unmarked) [4-(4-bromophenyl)-2-(3-(2-chloro-5-fluorophenyl)-2-fluoropropanamido)thiophene-3-carboxylic acid] | < 10
O=C(CCc1ccccc1F)Nc1scc(-c2ccc(Br)cc2)c1C(=O)O [4-(4-bromophenyl)-2-(3-(2-fluorophenyl)propanamido)thiophene-3-carboxylic acid] | < 10
O=C(CCc1ccc(F)c(F)c1)Nc1scc(-c2ccc(Br)cc2)c1C(=O)O [4-(4-bromophenyl)-2-(3-(3,4-difluorophenyl)propanamido)thiophene-3-carboxylic acid] | < 10
COc1cccc(CCC(=O)Nc2scc(-c3ccc(Br)cc3)c2C(=O)O)c1 [4-(4-bromophenyl)-2-(3-(3-methoxyphenyl)propanamido)thiophene-3-carboxylic acid] | < 10
O=C(CCc1ccc(F)cc1)Nc1scc(-c2ccc(Br)cc2)c1C(=O)O [4-(4-bromophenyl)-2-(3-(4-fluorophenyl)propanamido)thiophene-3-carboxylic acid] | < 10
O=C(CCc1ccco1)Nc1scc(-c2ccc(Br)cc2)c1C(=O)O [4-(4-bromophenyl)-2-(3-(furan-2-yl)propanamido)thiophene-3-carboxylic acid] | < 10
O=C(CCc1cccs1)Nc1scc(-c2ccc(Br)cc2)c1C(=O)O [4-(4-bromophenyl)-2-(3-(thiophen-2-yl)propanamido)thiophene-3-carboxylic acid] | < 10
O=C(O)c1c(-c2ccc(Br)cc2)csc1Nc1nc(-c2ccccc2)no1 [4-(4-bromophenyl)-2-(3-phenyl-1,2,4-oxadiazol-5-ylamino)thiophene-3-carboxylic acid] | < 10
Cc1c(S(=O)(=O)c2ccc(Cl)cc2)csc1C(=O)Nc1scc(-c2ccc(Br)cc2)c1C(=O)O [4-(4-bromophenyl)-2-(4-(4-chlorophenylsulfonyl)-3-methylthiophene-2-carboxamido)thiophene-3-carboxylic acid] | < 10
O=C(Nc1scc(-c2ccc(Br)cc2)c1C(=O)O)c1nc2c(F)cccc2o1 [4-(4-bromophenyl)-2-(4-fluorobenzo[d]oxazole-2-carboxamido)thiophene-3-carboxylic acid] | < 10
O=C(Nc1scc(-c2ccc(Br)cc2)c1C(=O)O)c1cc2c(F)cccn2n1 [4-(4-bromophenyl)-2-(4-fluoropyrazolo[1,5-a]pyridine-2-carboxamido)thiophene-3-carboxylic acid] | < 10
Cc1nnsc1C(=O)Nc1scc(-c2ccc(Br)cc2)c1C(=O)O [4-(4-bromophenyl)-2-(4-methyl-1,2,3-thiadiazole-5-carboxamido)thiophene-3-carboxylic acid] | < 10
O=C(Nc1scc(-c2ccc(Br)cc2)c1C(=O)O)c1cc2occc2[nH]1 [4-(4-bromophenyl)-2-(4H-furo[3,2-b]pyrrole-5-carboxamido)thiophene-3-carboxylic acid] | < 10
Cn1ncc(C(=O)Nc2scc(-c3ccc(Br)cc3)c2C(=O)O)c1Cl [4-(4-bromophenyl)-2-(5-chloro-1-methyl-1H-pyrazole-4-carboxamido)thiophene-3-carboxylic acid] | < 10
O=C(O)c1c(-c2ccc(Br)cc2)csc1NC(=O)C1Cc2cc(Cl)ccc2O1 (centres unmarked) [4-(4-bromophenyl)-2-(5-chloro-2,3-dihydrobenzofuran-2-carboxamido)thiophene-3-carboxylic acid] | < 10
O=C(Nc1scc(-c2ccc(Br)cc2)c1C(=O)O)c1cccc(F)n1 [4-(4-bromophenyl)-2-(6-fluoropicolinamido)thiophene-3-carboxylic acid] | < 10
COc1cccc(C(=O)Nc2scc(-c3ccc(Br)cc3)c2C(=O)O)n1 [4-(4-bromophenyl)-2-(6-methoxypicolinamido)thiophene-3-carboxylic acid] | < 10
Cc1ccc(C(=O)Nc2scc(-c3ccc(Br)cc3)c2C(=O)O)cn1 [4-(4-bromophenyl)-2-(6-methylnicotinamido)thiophene-3-carboxylic acid] | < 10
N#Cc1cccc2nc(C(=O)Nc3scc(-c4ccc(Br)cc4)c3C(=O)O)oc12 [4-(4-bromophenyl)-2-(7-cyanobenzo[d]oxazole-2-carboxamido)thiophene-3-carboxylic acid] | < 10
O=C(Nc1scc(-c2ccc(Br)cc2)c1C(=O)O)c1nc2cccc(F)c2o1 [4-(4-bromophenyl)-2-(7-fluorobenzo[d]oxazole-2-carboxamido)thiophene-3-carboxylic acid] | < 10
COc1cccc2c1CC(C(=O)Nc1scc(-c3ccc(Br)cc3)c1C(=O)O)CC2 (centres unmarked) [4-(4-bromophenyl)-2-(8-methoxy-1,2,3,4-tetrahydronaphthalene-2-carboxamido)thiophene-3-carboxylic acid] | < 10
O=C(Nc1scc(-c2ccc(Br)cc2)c1C(=O)O)OCc1ccccc1Cl [4-(4-bromophenyl)-2-((2-chlorobenzyloxy)carbonylamino)thiophene-3-carboxylic acid] | < 10

Results, then the molecule that gave them:

IC50 [µM] | Compound
< 10 | CC(Cc1ccccc1)C(=O)Nc1scc(-c2ccc(Br)cc2)c1C(=O)O (centres unmarked) [4-(4-bromophenyl)-2-(2-methyl-3-phenylpropanamido)thiophene-3-carboxylic acid]
< 10 | O=C(CC(c1ccccc1)c1ccccc1)Nc1scc(-c2ccc(Br)cc2)c1C(=O)O [4-(4-bromophenyl)-2-(3,3-diphenylpropanamido)thiophene-3-carboxylic acid]
< 10 | O=C(O)c1c(-c2ccc(Br)cc2)csc1NC(=O)C(F)Cc1cc(F)c(F)cc1Cl (centres unmarked) [4-(4-bromophenyl)-2-(3-(2-chloro-4,5-difluorophenyl)-2-fluoropropanamido)thiophene-3-carboxylic acid]
< 10 | O=C(O)c1c(-c2ccc(Br)cc2)csc1NC(=O)C(F)Cc1ccc(F)cc1Cl (centres unmarked) [4-(4-bromophenyl)-2-(3-(2-chloro-4-fluorophenyl)-2-fluoropropanamido)thiophene-3-carboxylic acid]
< 10 | O=C(O)c1c(-c2ccc(Br)cc2)csc1NC(=O)C(F)Cc1c(F)cccc1Cl (centres unmarked) [4-(4-bromophenyl)-2-(3-(2-chloro-6-fluorophenyl)-2-fluoropropanamido)thiophene-3-carboxylic acid]
< 10 | O=C(O)c1c(-c2ccc(Br)cc2)csc1NC(=O)C(F)Cc1ccccc1Cl (centres unmarked) [4-(4-bromophenyl)-2-(3-(2-chlorophenyl)-2-fluoropropanamido)thiophene-3-carboxylic acid]
< 10 | O=C(CCc1ccccc1Cl)Nc1scc(-c2ccc(Br)cc2)c1C(=O)O [4-(4-bromophenyl)-2-(3-(2-chlorophenyl)propanamido)thiophene-3-carboxylic acid]
< 10 | CCc1cccc(NC(=O)Nc2scc(-c3ccc(Br)cc3)c2C(=O)O)c1 [4-(4-bromophenyl)-2-(3-(3-ethylphenyl)ureido)thiophene-3-carboxylic acid]
< 10 | O=C(CCc1cccc(F)c1)Nc1scc(-c2ccc(Br)cc2)c1C(=O)O [4-(4-bromophenyl)-2-(3-(3-fluorophenyl)propanamido)thiophene-3-carboxylic acid]
< 10 | O=C(Nc1cccc(F)c1)Nc1scc(-c2ccc(Br)cc2)c1C(=O)O [4-(4-bromophenyl)-2-(3-(3-fluorophenyl)ureido)thiophene-3-carboxylic acid]
< 10 | COc1ccc(CCC(=O)Nc2scc(-c3ccc(Br)cc3)c2C(=O)O)cc1 [4-(4-bromophenyl)-2-(3-(4-methoxyphenyl)propanamido)thiophene-3-carboxylic acid]
< 10 | COC1CCCC(C(=O)Nc2scc(-c3ccc(Br)cc3)c2C(=O)O)C1 (centres unmarked) [4-(4-bromophenyl)-2-(3-methoxycyclohexanecarboxamido)thiophene-3-carboxylic acid]
< 10 | Cc1ccsc1C(=O)Nc1scc(-c2ccc(Br)cc2)c1C(=O)O [4-(4-bromophenyl)-2-(3-methylthiophene-2-carboxamido)thiophene-3-carboxylic acid]
< 10 | O=C(CCc1ccccc1)Nc1scc(-c2ccc(Br)cc2)c1C(=O)O [4-(4-bromophenyl)-2-(3-phenylpropanamido)thiophene-3-carboxylic acid]
< 10 | O=C(Nc1scc(-c2ccc(Br)cc2)c1C(=O)O)c1cc2sccc2[nH]1 [4-(4-bromophenyl)-2-(4H-thieno[3,2-b]pyrrole-5-carboxamido)thiophene-3-carboxylic acid]
< 10 | O=C(Nc1scc(-c2ccc(Br)cc2)c1C(=O)O)c1nc2cc(Cl)ccc2o1 [4-(4-bromophenyl)-2-(5-chlorobenzo[d]oxazole-2-carboxamido)thiophene-3-carboxylic acid]
< 10 | O=C(Nc1scc(-c2ccc(Br)cc2)c1C(=O)O)c1ccc(-c2ccccc2)s1 [4-(4-bromophenyl)-2-(5-phenylthiophene-2-carboxamido)thiophene-3-carboxylic acid]
< 10 | O=C(Nc1scc(-c2ccc(Br)cc2)c1C(=O)O)c1ccc(C(F)(F)F)nc1 [4-(4-bromophenyl)-2-(6-(trifluoromethyl)nicotinamido)thiophene-3-carboxylic acid]
